# What was measured:
# streptavidin = test: SPR measurement of streptavidin association with the biotin-presenting monolayer; type: binding; conditions: biotin 140 μM mixed with streptavidin before introduction to the SAM
# From the text: The following sequence was used to measure the association of proteins to the monolayers: buffer (phosphate buffered saline, pH 7.4) was flowed over the monolayer for three minutes to establish a baseline; a solution of protein in the same buffer was flowed over the surface for eight minutes to observe binding; buffer was again flowed for four minutes to quantitate the amount of protein that remained bound. […] (SPR measures the angle of light (θ) reflected from the backside of the gold substrate that is a minimum in intensity. Changes in this angle (Δθ) are linearly related to the index of refraction of the solution above the surface and therefore to the density of adsorbed protein (Δθof 0.10°=1 ng/mm^2). Experiments show a change in θ immediately following protein injection due to differences in refractive index between the two solutions.) The change in resonance angle (Δθ) after streptavidin was flowed over the substrate corresponds to a final protein density of 1.1 ng/mm^2. The protein remained irreversibly bound because of the high affinity of the streptavidin-biotin complex.
# Electrochemistry was performed in buffered water (PBS, pH 7.4) using the gold substrate as the working electrode, a platinum wire as the counter electrode, and a Ag/AgCl/KCl reference electrode—prior to mounting the substrate in a cartridge for analysis by SPR. […]
# [1] = system: Swiss 3T3 fibroblast cells; test: Adhesion and electrically or peptide-triggered release of cells on patterned RGD monolayer; type: cell-based
# Method: The substrate was patterned into two regions that each presented the RGD peptide at a density of less than 0.1% mixed with tri(ethylene glycol) groups. The pattern was formed by applying an alkanethiol solution (corresponding to FIG. 5A) for 5 min to a gold-coated glass substrate, half of which was blocked with a polydimethylsiloxane mask. Following rinsing, the mask was removed, and the substrate was incubated in a solution of a second alkanethiol (corresponding to FIG. 5B) for 6 h. In all cases, the monolayers were formed from ethanolic solutions containing a mixture of an alkanethiol substituted with tri(ethylene glycol) and an alkanethiol substituted with either RGD or the RGD containing alkanethiol of the present invention, in a ratio of 999: 1. The two regions differed only in the linkage used to tether the peptides to the monolayer (C. Roberts, C. S. Chen, M. Mrksich, V. Martichonok, D. E. Ingber, G. M. Whitesides, J. Am. Chem. Soc. 1998, 120, 6548-6555; and B. T. Houseman, M. Mrksich, J. Org. Chem. 1998, 63, 7552-7555).
# This substrate was placed into cell culture media and a suspension of Swiss 3T3 fibroblast cells was added. The Swiss Albino 3T3 cells (ATCC, Rockville, Md.) were grown in Dulbecco's Modified Eagle Medium (DMEM) containing 10% fetal bovine serum and penicillin/streptomycin. All cultures were maintained at 37° C. in a humidified 10% CO2 atmosphere. […]
Compound,binding of streptavidin to the SAM when streptavidin was mixed with biotin (streptavidin),"cells released from the surface by soluble peptide ([1]; 2 mM in fresh media, 37° C. for 20 minutes, after electrical treatment)","detachment of cells by soluble peptide prior to electrical treatment ([1]; patterned substrate, both regions, prior to electrical treatment)"
O=C(O)CCCC[C@@H]1SC[C@@H]2NC(=O)N[C@@H]21 [biotin],no binding of the protein to the surface,–,–
Gly-Arg-Gly-Asp-Ser (GRGDS; printed: Gly-Arg-Gly-Asp-Ser),–,greater than 95%,near complete detachment of cells from both regions

# Source: US6764768B2, “Controlled release composition” (Arch Development Corporation, priority 2001, dated 2004)
